One substance from patent US9388389B2, “JFH-1 based HCV cell culture systems for NS5A of genotypes 1-7” (Hvidovre Hospital, priority 2009, dated 2016) can be followed below.

Holding throughout (test): IFN-alpha 2b treatment of infected cultures
Assay type in all cases: cell-based, hepatitis C virus

The test system of assay [1] is J4(1b) NS5A recombinant. The note with it: genotype 1b, isolate J4 NS5A recombinant. The protocol:
(§1) Huh7.5 cells were infected with J6/JFH1 with NS5A of the indicated isolate (or ISDR type). J6/JFH1 was included with two infectious doses to control for impact of dose variability. The infectious dose of other recombinants was in the range between. […] On day three cells were fixed and immunostained for NS3 expression. The number of single infected cells was determined by automated counting of individual wells. Values are shown as percentage infected cells compared to the average for non-treated controls of the given recombinant. Data were fitted to a sigmoidal dose-response curve with the equation Y=1/(1+10^((Log(EC50)−Log(IU/mL))*HillSlope)), where Y is the response in %.
(§2) 5×10^3 naïve Huh7.5 cells were plated per well in a poly-D-lysine coated 96-well plate (Nunc, Roskilde, D K) one day before infection with different recombinant viruses. Infectious doses were chosen to aim at 400-1000 single infected cells in non-treated wells at the end of the experiment. J6/JFH1 was included with two infectious doses (high and low) to control for impact of dose variability. The infectious dose of other recombinants was in the range between. […] On day three cells were fixed and immunostained for NS3 expression as described above. In parallel, cell viability was monitored with CellTiter™ 96 AQueous One Solution Cell Proliferation Assay (Promega, Madison, Wis. USA). The number of single infected cells was determined by automated counting of individual wells as described above.
(§3) On day three cells were fixed and immunostained for NS3 expression. The number of single infected cells was determined by automated counting (FIG. 15).

Assay [2] concerns ED43(4a) NS5A recombinant. The note with it: genotype 4a, isolate ED43 NS5A recombinant. The protocol:
as §1, §2, §3

The subject of assay [3] is H77C(1a) NS5A recombinant. Particulars: genotype 1a, isolate H77C NS5A recombinant. The method, then: as §1, §2, §3
In assay [4] the test system is HK6a(6a) NS5A recombinant. Particulars: genotype 6a, isolate HK6a NS5A recombinant. The method, then: as §1, §2, §3
For assay [5], the system named is JFH1(2a) NS5A (J6/JFH1). The note with it: genotype 2a, isolate JFH1 NS5A (J6/JFH1). The protocol:
as §1, §2, §3

The subject of assay [6] is SA13(5a) NS5A recombinant. Particulars: genotype 5a, isolate SA13 NS5A recombinant. The protocol:
as §1, §2, §3

Assay [7] relates to J4(1b) NS5A ISDR mutant recombinant. Particulars: genotype 1b, isolate J4 NS5A. The method, then: as §1, §2, §3
Assay [8] deals with J6(2a) NS5A recombinant. The note with it: genotype 2a, isolate J6 NS5A recombinant. The method, then:
as §1, §2, §3

Assay [9] concerns S52(3a) NS5A recombinant. Particulars: genotype 3a, isolate S52 NS5A recombinant. The protocol: as §1, §2, §3
Assay [10] concerns TN(1a) NS5A recombinant. Particulars: genotype 1a, isolate TN NS5A recombinant. The method, then: as §1, §2, §3
The subject of assay [11] is QC69(7a) NS5A recombinant. Particulars: genotype 7a, isolate QC69 NS5A recombinant. The method, then: as §1, §2, §3

On to IFN-α, for which the “IFN-α, EC50 (IU/mL), original” value in [1] is given as 0.12 IU/mL; in [2], 0.15 IU/mL; in [3], 0.25 IU/mL; in [4], 0.21 IU/mL; in assay [5] it was 0.25 IU/mL; in [6], 0.32 IU/mL. The “IFN-α, EC50 (IU/mL), original” value in assay [8] turned out to be 0.12 IU/mL; in assay [9], 0.27 IU/mL; in assay [10], 0.28 IU/mL; in assay [11] it was 0.18 IU/mL. For the same substance, the “IFN-α, EC50 (IU/mL), 'Sensitive-type' ISDR mutant” value in assay [7] amounted to 0.12 IU/mL.
